Results as given in patent US7291629B2, “Neurotrophin antagonist compositions” (Painceptor Pharma Corporation, priority 1996, dated 2007).

Tested on: p75 and trkA receptors
Test: Binding of [125I]NGF to PC12 cells in the presence and absence of BDNF
Settings: 100 uM compound, 0.5 nM 125I-NGF
Description: The ability of the compounds of Formula I to antagonize NGF interaction with the p75 and trkA receptors was determined as follows.
NGF was labelled using the Lactoperoxidase labelling method (Sutter et al., J. Biol. Chem., 1979) and the labelled NGF was separated from radiolabelling agents and free iodide using a PD-10 Sephadex G-25 column.
PC12 cells were grown in RPMI with 10% heat inactivated donor horse serum and 5% fetal calf serum. Cells were harvested for binding by washing off the media with calcium-magnesium free balanced salt solution (Gey's solution) and incubated in 5 ml Gey's solution at 37° C. for 15 minutes. Cells were pelleted by centrifugation and suspended in Hepes-Krebs Ringer buffer (HKR) (10 mM Hepes pH7.35, containing 125 mM NaCl, 4.8 mM KCl, 1.3 mM CaCl2, 1.2 mM MgSO4, 1.2 mM KH2PO4, 1 mg/ml BSA and 1.0 mg/ml glucose) at a concentration of 4×10^6/ml and kept on ice. (C) NGF Binding The reaction was performed in a 96 well plate. Suspended cells (150 ul, […]) were added to ^125I-NGF (final concentration of 0.5 nM) and the competing compound of Formual I in a final volume of 300 ul of HKR buffer. The plates were incubated with shaking for 2 hr at 4° C. At the end of the incubation, 100 ul aliquots of the reaction sample were added to 400 ul microcentrifuge tubes containing 200 ul of 10% glycerol in HKR buffer. The tubes were centrifuged for 1 minute at ˜5000 rpm and the tip containing the cell pellet was cut off. Radioactivity bound to the cells was determined by measuring the ^125I-NGF associated with each pellet in a gamma counter. Specific binding is calculated as the difference between the amount of ^125I-NGF bound in the absence (total) and presence (NSB) of 50 nM unlabeled NGF. TrkA binding is determined similarly except 10 nM BDNF is added to all reactions. Table 1 summarizes the values obtained from this experiment for the inhibition of binding of NGF to P75 and TrkA by compounds of Formula I.

First: 3-Amino-7,4-bis(ethyl-1,3-dioxo-1,2,3,4-tetrahydrobenzo[i]isoquinoline
Second: 3-Methyl-3-(1,3-dioxo-5-nitro(1H,3H)benz[de]isoquinolyl)butyric acid methylester
The “% Inhibition at 100 uM” value of the first is higher: 23% for the first, 17% for the second.

First: Cc1ccc(S(=O)(=O)Nc2cc(C)c(C)cc2N2C(=O)CC3C=CC=C4C=CC=CC43C2=O)cc1 (stereo not drawn) [1,3-Dioxo-2-[4,5-dimethyl-2-(4-methylphenylsulphonamido)phenyl]-1,2,3,4-tetrahydrobenzo[i]isoquinoline]
Second: O=C1c2cccc3cc([N+](=O)[O-])cc(c23)C(=O)N1CCc1ccccn1 [1,3-Dioxo-5-nitro-N-(pyrid-2-ylethyl)-1,2,3,4-tetrahydro[i]isoquinoline]
The “% Inhibition at 100 uM” value of the first is lower: 19% for the first, 28% for the second.

Going from `O=C1c2cccc3cc([N+](=O)[O-])cc(c23)C(=O)N1CCCN1CCOCC1` [1,3-Dioxo-5-nitro-n-propylmorpholino-1,2,3,4-tetrahydrobenzo[i]isoquinoline] to `O=C1CC2C=C(Sc3ccccc3)C=C3C=CC=CC32C(=O)N1CCc1ccccn1` (stereo not drawn) [1,3-Dioxo-6-phenylmercapto-N-(pyrid-2-ylethyl)-1,2,3,4-tetrahydro-benzo[i]isoquinoline], the “% Inhibition at 100 uM” value rises from 11% to 33%.

First: O=C1c2cccc3cc([N+](=O)[O-])cc(c23)C(=O)N1CC1CCCO1 (stereo not drawn) [1,3-Dioxo-N-methyltetrahydrofurfur-2-yl-5-nitro-1,2,3,4-tetrahydro[i]isoquinoline]
Second: Nc1ccccc1N1C(=O)c2cccc3cccc(c23)C1=O [2-(2-Aminophenyl)naphthalimide]
The “% Inhibition at 100 uM” value of the first is lower: 18% for the first, 20% for the second.

Compared with `O=C1c2cccc3cccc(c23)C(=O)N1c1ccccc1O` [2-(2-Hydroxyphenyl)naphthalimide], `O=C1CC2C=CC=C3C=CC=CC32C(=O)N1c1nc2ccccc2[nH]1` (stereo not drawn) [2-(Benzimidaz-2-yl)-1,3-dioxo-1,2,3,4-tetrahydrobenzo[i]isoquinoline] is higher in “% Inhibition at 100 uM” value: 13% for the first, 23% for the second.

First: Cc1ccc(S(=O)(=O)Nc2cc(Cl)c(Cl)cc2N2C(=O)c3cccc4cccc(c34)C2=O)cc1 [2-[2-(4-Methylbenzsulphonamido)-4,5-dichlorophenyl]naphthalimide]
Second: Cc1ccc(S(=O)(=O)Nc2ccccc2N2C(=O)c3cccc4c(N(C)C)ccc(c34)C2=O)cc1 [2-{2-(4-methylphenylsulphonamido)phenyl}-6-(N,N-dimethylamino)-naphthalimide]
The “% Inhibition at 100 uM” value of the first is lower: 26% for the first, 29% for the second.

Going from `O=C(O)CCN1C(=O)c2cccc3cc([N+](=O)[O-])cc(c23)C1=O` [3-Nitro-1,8-(N-propioncarboxylate)succinamidonapthalene] to `CCCCN1C(=O)c2cccc3cc(N)cc(c23)C1=O` [5-Amino-N-butylnaphthalimide], the “% Inhibition at 100 uM” value falls from 25% to 13%.

First: O=C1c2cccc3cc(Br)cc(c23)C(=O)N1Cc1cccnc1 [5-Bromo-1,3-dioxo-N-methylpyrid-3-yl-1,2,3,4-tetrahydrobenzo[i]isoquinoline]
Second: CN(C)c1ccc2c3c(cccc13)C(=O)N(c1nc3ccccc3[nH]1)C2=O [6-(N,N-Dimethylamino)-2-(benzimidazol-2-yl)naphthalimide]
The “% Inhibition at 100 uM” value of the first is lower: 28% for the first, 36% for the second.

First: O=C1c2cccc3c([N+](=O)[O-])ccc(c23)C(=O)N1Cc1ccco1 [6-Nitro-2-(furfuryl)naphthalimide]
Second: O=C1c2cccc3c([N+](=O)[O-])ccc(c23)C(=O)N1CCc1ccccn1 [6-Nitro-2-(pyrid-2-ylethyl)naphthalimide]
The “% Inhibition at 100 uM” value of the first is higher: 17% for the first, 11% for the second.

Compared with `O=C1c2cccc3c([N+](=O)[O-])ccc(c23)C(=O)N1Cc1cccnc1` [6-Nitro-2-(pyrid-3-methyl)naphthalimide], `O=C1c2cccc3c([N+](=O)[O-])ccc(c23)C(=O)N1CC1CCCO1` (stereo not drawn) [6-Nitro-2-(tetrahydrofuran-2-ylmethyl)naphthalimide] is higher in “% Inhibition at 100 uM” value: 23% for the first, 28% for the second.

Going from `CCOC(=O)CN1C(=O)c2cccc3cc([N+](=O)[O-])cc(c23)C1=O` [Ethyl-5-nitro-1,3-dioxo-1H-benz[de]isoquinoline-2-3H-acetate] to `O=C1c2cccc3cccc(c23)C(=O)N1CCO` [N-(1,3-Dioxo-1,2,3,4-tetrahydrobenzo[i]isoquinoline)aminoethanol], the “% Inhibition at 100 uM” value rises from 16% to 27%.

Going from `O=C1c2cccc3cc([N+](=O)[O-])cc(c23)C(=O)N1CCO` [N-(1,3-Dioxo-5-nitro-1,2,3,4-tetrahydrobenzo[i]isoquinoline)-aminoethanol] to `O=C(O)CN1C(=O)c2cccc3cc([N+](=O)[O-])cc(c23)C1=O` [N-(1,3-Dioxo-5-nitro-1,2,3,4-tetrahydrobenzo[i]isoquinoline)acetic acid], the “% Inhibition at 100 uM” value rises from 44% to 58%.

Going from `O=C1c2cccc3c(Sc4ccccc4)ccc(c23)C(=O)N1CCO` [N-(1,3-Dioxo-6-phenylmercapto-1,2,3,4-tetrahydrobenzo[i]isoquinoline)aminoethanol] to `Cc1cc(C)cc(N2C(=O)c3cccc4cccc(c34)C2=O)c1` [N-(3,5-Dimethylphenyl)-1,8-naphthalimide], the “% Inhibition at 100 uM” value rises from 3% to 9%.

Compared with `CCOc1ccc(N2C(=O)c3cccc4cc([N+](=O)[O-])cc(c34)C2=O)cc1` [N-(4-Ethoxyphenyl)-5-nitronaphthalimide], `O=C1c2cccc3cccc(c23)C(=O)N1CCc1ccccn1` [N-(Pyrid-2-ylethyl)-1,8-naphthalimide] is higher in “% Inhibition at 100 uM” value: 18% for the first, 35% for the second.

Compared with `O=C1c2cccc3cccc(c23)C(=O)N1Cc1ccccn1` [N-(Pyrid-2-ylmethyl)naphthalimide], `O=C1c2cccc3cccc(c23)C(=O)N1Nc1ccccc1` [N-Anilino-1,8-naphthalimide] is lower in “% Inhibition at 100 uM” value: 10% for the first, 1% for the second.

First: O=C1c2cccc3cccc(c23)C(=O)N1Cc1ccco1 [N-Furfuryl-1,8-naphthalimide]
Second: CN1C(=O)c2cccc3cccc(c23)C1=O [N-Methylnaphthalimide]
The “% Inhibition at 100 uM” value of the first is higher: 36% for the first, 11% for the second.

First: CCCCCCCCN1C(=O)c2cccc3cc([N+](=O)[O-])cc(c23)C1=O [N-Octyl-5-nitronaphthalimide]
Second: NN1C(=O)c2cccc3cccc(c23)C1=O [Naphthalicacid-N-aminoimide]
The “% Inhibition at 100 uM” value of the first is higher: 29% for the first, 27% for the second.

For Naphthalicacid-N,N′-diimide, the “% Inhibition at 100 uM” value was 13%.

Tested on: L5/L6 Nerve Ligated and Sham-Operated Rats
Test: not given
Settings: i.th; L5/L6 nerve ligated rats

For `CN1CC[C@]23c4c5ccc(O)c4O[C@H]2[C@@H](O)C=C[C@H]3[C@H]1C5` [Morphine, morphine, reference compound], the “A50(95% C.L.) Tail Flick- Ligated” value was 2.3 µg.

Same assay, conditions: i.th; sham-operated rats

With `CN1CC[C@]23c4c5ccc(O)c4O[C@H]2[C@@H](O)C=C[C@H]3[C@H]1C5` [Morphine, morphine, reference compound] the “A50(95% C.L.) Tail Flick- Sham” value was 1.45 µg.

Tested on: L5/L6 Nerve Ligated rats
Test: Tactile allodynia, nerve ligation injury model (von Frey paw withdrawal threshold)
Settings: i.p.

`CN1CC[C@]23c4c5ccc(O)c4O[C@H]2[C@@H](O)C=C[C@H]3[C@H]1C5` [Morphine, morphine, reference compound] was tested, and the “A50(95% C.L.) Allodynia- Ligated” value was 7.1 mg/kg.

Same assay, conditions: i.th

In the case of `CN1CC[C@]23c4c5ccc(O)c4O[C@H]2[C@@H](O)C=C[C@H]3[C@H]1C5` [Morphine, morphine, reference compound], the “A50(95% C.L.) Allodynia- Ligated” value is reported as greater than 100 µg.
